# From patent publication US20100099630A1, “Method for improving ventilatory efficiency” (priority 2004, published 2010)
# How the values were obtained:
# Format in all cases: in vivo, human
# patients having CHF = assay: Ventilatory efficiency during cardiopulmonary exercise testing, CHF patients
# Method: Ventilatory efficiency has been critically shown to be the most powerful, independent predictor of CHF patient survival. Ventilatory efficiency (VE) is determined by the linear, submax relationship between Minute Ventilation (V) and carbon dioxide output (VCO2), V being on the “y axis” and the linear slope being determined using the linear regression model, y=a+bx, “b” representing the slope. The steeper the slope, the worse the ventilation efficiency of the patient. As an exemplar cohort of patients with reduced ventilatory efficiency, patients suffering from CHF were recruited. Patients having CHF were selected according to the following criteria: • Male and female 48-84 years of age. • Ejection fraction 30-72% • NY Class III-IV (severe condition). • Test and control groups matched for pre-operative volume status, cardiac medication, measured risk assessment. The test group was administered D-ribose, 15 grams tid for eight weeks; the controls received 15 grams Dextrose tid. All patients in this group underwent repeated cardiopulmonary exercise using a four-minute sub-maximal step protocol. Patients were tested on a step apparatus. Others in the study were tested on a treadmill with varied grade or on drug-driven exercise simulation for those patients unable to use the other two devices. Symptom-limited peak exercise performance with at least 80-85% of age related maximal heart rate was attempted with each patient. Upper extremity blood pressure was obtained at every two minutes and also at peak exercise. Patients were tested on a treadmill with varying grade, on a step apparatus or with simulated drug-driven exercise simulation for those patients unable to exercise physically. VCO2 and VO2max before and after exercise was measured and VE calculated. The methodology is described in Circulation: www.circulationaha.org Ponikowski et al. Ventilation in Chronic Heart Failure, Feb. 20, 2001, the teachings of which are incorporated by reference. Ventilatory efficiency, VO2 and O2 pulse were assessed up to the anaerobic threshold at baseline and again at eight weeks. Weber function class was also determined based on VO2 at the anaerobic threshold (AT). The results for the first group of test patients (2 females and 13 males) are summarized in Table I. “R” designates D-ribose. Each patient acted as his or her control, that is, results after ribose administration were compared to baseline results. VO2 efficiency is the O2 uptake per unit time. O2 pulse is a measurement of the heart stroke volume.
# [1] = system: representative patients (coronary artery disease / CHF cohort); assay: Exercise testing of representative individual patients (treadmill, step test, drug-driven simulated exercise)
# Method: Patients were tested on a treadmill with varying grade, on a step apparatus or with simulated drug-driven exercise simulation for those patients unable to exercise physically. VCO2 and VO2max before and after exercise was measured and VE calculated. The methodology is described in Circulation: www.circulationaha.org Ponikowski et al. Ventilation in Chronic Heart Failure, Feb. 20, 2001, the teachings of which are incorporated by reference. Ventilatory efficiency, VO2 and O2 pulse were assessed up to the anaerobic threshold at baseline and again at eight weeks. Weber function class was also determined based on VO2 at the anaerobic threshold (AT). The results for the first group of test patients (2 females and 13 males) are summarized in Table I. “R” designates D-ribose. Each patient acted as his or her control, that is, results after ribose administration were compared to baseline results. VO2 efficiency is the O2 uptake per unit time. O2 pulse is a measurement of the heart stroke volume. A person, normal weight, was diagnosed with blockage of the coronary arteries with stable angina, not yet progressing to congestive heart failure. […] Using a treadmill, with incremental increase in grade, their VO2 max and VCO2 were determined. Following eight weeks of ribose administration of five grams four times a day, they were retested under the same conditions. Plotting a regression analysis of VO2 versus log V, the VE slope decreased from 60.2 to 45.5. It is considered that a slope of 36.9 or below indicates impairment of ventilatory efficiency. Therefore, while this patient was not in the normal range of ventilatory efficiency, improvement was marked. A second patient, a person of normal weight, self administered five grams of ribose four times a day for eight weeks. At the beginning of the study, their VE slope was 55.7 following nine minutes of submaximal exercise. At the end of the study, their VE slope had decreased to 45.2. This patient also was tested on the step test. The initial test was rated as “good” and the second test was subjectively considered to be “great.” A third patient, an obese person, was on nasal oxygen and was tested with drug-driven simulated exercise. […] Although their VE was now in the normal range, the test results, although improved were not subjectively rated as “good”.
# [2] = system: patient with rheumatoid lung; assay: Ventilatory efficiency in rheumatoid lung, case report; settings: person, ribose approximately five grams two to three times a day, within a month
# Text: A person developed rheumatoid arthritis in the 1970's. By 1988, they began to show symptoms of rheumatoid lung, began the use of rescue inhalers such as Albuterol® inhaler and was hospitalized for respiratory distress three times in the next five years. At that point, they were prescribed Advair® steroid inhaler, which relieved their symptoms considerably, although they still required a rescue inhaler several times per week. In 2002, they began the administration of ribose, approximately five grams two to three times a day.
# [3] = system: patient at risk for COPD (No COPD); assay: Pulmonary function during moderate sub-maximum step exercise, patient without COPD; settings: Patient 5, No COPD, post ribose
# Method: Four patients presenting with chronic obstructive pulmonary disease were tested for various parameters of pulmonary function as described in Example 1. Baseline measurements of pulmonary function were taken during moderate, sub-maximum step exercise. Patients were instructed to self-administer five grams of ribose four times a day. After eight weeks, pulmonary function was again measured during moderate exercise.
# In Table II, the units are: • VD=volume of the dead space; VT=tidal volume in liters per minute. The ratio VD/VT can be expressed as ml/ml. This ratio is taken at the nadir of sub-maximal exercise and is a measure of lung function. • VT=tidal volume in liters; RR=breaths per minute • VT=volume in ml at each inspiration, ti=inspiratory time. VT/ti is the inspiratory drive (effort) in ml/second. • VT=tidal volume in liters at constant body temperature pressure status. • VCO2=liters/minute of expired CO2 • RR=breaths per minute. VT/RR=tidal volume in liters per breath.
# Table II illustrates that no one measurement or ratio is predictive of the clinical state of COPD and response to ribose administration. […] One goal of this study was to determine whether the progression of pulmonary dysfunction in such a patient could be slowed or halted over time.
# [4] = system: patients presenting with chronic obstructive pulmonary disease; assay: Pulmonary function during moderate sub-maximum step exercise, COPD patients; settings: for VD/VT: post ribose five grams four times a day; for VD/VT / VT/RR / VCO2 / VTBTPS (tidal volume) / VT/ti (inspiratory drive): eight weeks; for VT/RR / VCO2 / VTBTPS (tidal volume) / VT/ti (inspiratory drive): post ribose
# Method: Four patients presenting with chronic obstructive pulmonary disease were tested for various parameters of pulmonary function as described in Example 1. Baseline measurements of pulmonary function were taken during moderate, sub-maximum step exercise. Patients were instructed to self-administer five grams of ribose four times a day. After eight weeks, pulmonary function was again measured during moderate exercise. In Table II, the units are: • VD=volume of the dead space; VT=tidal volume in liters per minute. The ratio VD/VT can be expressed as ml/ml. This ratio is taken at the nadir of sub-maximal exercise and is a measure of lung function. • VT=tidal volume in liters; RR=breaths per minute • VT=volume in ml at each inspiration, ti=inspiratory time. VT/ti is the inspiratory drive (effort) in ml/second. • VT=tidal volume in liters at constant body temperature pressure status. • VCO2=liters/minute of expired CO2 • RR=breaths per minute. VT/RR=tidal volume in liters per breath.
# [5] = FIG. 2, single patient, after eight weeks of ribose supplementation, during exercise
compound,measurement,setting,value
O=C[C@H](O)[C@H](O)[C@H](O)CO [D-ribose],VO2 uptake efficiency,"patients having CHF; Post-R: D-ribose 15 grams tid for eight weeks, 2 females and 13 males, Pre-R 1.00 +/− 0.28, p < 0.028",1.30 +/− 0.28
same,O2 pulse,"patients having CHF; Post-R: D-ribose 15 grams tid for eight weeks, 2 females and 13 males, Pre-R 7.45 +/− 1.8, p < 0.05",9.04 +/− 1.9
same,Ventilatory efficiency,"patients having CHF; Post-R: D-ribose 15 grams tid for eight weeks, 2 females and 13 males, up to anaerobic threshold, Pre-R 50.6 +/− 9.8, p < 0.01",41.6 +/− 6.4
same,improvement of VE,patients having CHF; after eight weeks of D-ribose versus baseline,about 20%
same,Weber functional class,"patients having CHF; based on VO2 at the anaerobic threshold, several of the patients, after eight weeks","reclassified into a higher, that is, less severe, Weber functional class"
same,VE slope,"[1]; obese person on nasal oxygen, drug-driven simulated exercise, ribose five grams four times daily, eight weeks, baseline 63.0",35.2
same,need for nasal oxygen,"[1]; obese person, ribose five grams four times daily, eight weeks",able to discontinue the oxygen
same,time of simulated exercise,"[1]; obese person, ribose five grams four times daily, eight weeks, baseline 7.43 minutes",11.44 min
same,VE slope,"[1]; person, coronary artery blockage with stable angina, treadmill, ribose five grams four times a day, eight weeks, baseline 60.2",45.5
same,VE slope,"[1]; person, nine minutes of submaximal exercise, ribose five grams four times a day, eight weeks, baseline 55.7",45.2
same,step test subjective rating,"[1]; person, second test after eight weeks of ribose, initial test rated good",great
same,use of rescue inhaler and exercise tolerance,[2],able to discontinue the use of the rescue inhaler and to exercise more without breathlessness symptoms
same,VT/RR,[3]; baseline 0.090,0.100 liters per breath
same,VD/VT,[3]; baseline 0.212,0.221 ml/ml
same,VCO2,[3]; baseline 0.990,1.26 L/min
same,VTBTPS (tidal volume),[3]; baseline 1.90,2.40 L
same,VT/ti (inspiratory drive),[3]; baseline 1636,2232 mL/s
same,slope of respiratory rate plotted against tidal volume,"[4]; FIG. 1, single patient, after eight weeks of ribose supplementation",decreased slope
same,VE value,[4]; [5],42 L/min
same,tidal volume,[4]; [5],0.9 L
same,VD/VT,"[4]; Patient 1 (asthmatic with COPD), nadir of sub-maximal exercise, baseline 0.304",0.253 ml/ml
same,VT/RR,"[4]; Patient 1, baseline 0.059",0.065 liters per breath
same,VCO2,"[4]; Patient 1, baseline 1.038",1.050 L/min
same,VTBTPS (tidal volume),"[4]; Patient 1, baseline 1.54",1.92 L
same,VT/ti (inspiratory drive),"[4]; Patient 1, baseline 1492",1827 mL/s
same,VD/VT,"[4]; Patient 2 (COPD), baseline 0.439",0.303 ml/ml
same,VT/RR,"[4]; Patient 2, baseline 0.036",0056 liters per breath
same,VCO2,"[4]; Patient 2, baseline 0.460",0.460 L/min
same,VTBTPS (tidal volume),"[4]; Patient 2, baseline 0.830",1.04 L
same,VT/ti (inspiratory drive),"[4]; Patient 2, baseline 779",752 mL/s
same,VD/VT,"[4]; Patient 3 (COPD), baseline 0.198",0.221 ml/ml
same,VT/RR,"[4]; Patient 3, baseline 0.041",0.046 liters per breath
same,VCO2,"[4]; Patient 3, baseline 0.280",0.454 L/min
same,VTBTPS (tidal volume),"[4]; Patient 3, baseline 0.614",0.873 L
same,VT/ti (inspiratory drive),"[4]; Patient 3, baseline 373",706 mL/s
same,VD/VT,"[4]; Patient 4 (COPD), baseline 0.475",0.280 ml/ml
same,VT/RR,"[4]; Patient 4, baseline 0.013",0.018 liters per breath
same,VCO2,"[4]; Patient 4, baseline 0.310",0.814 L/min
same,VTBTPS (tidal volume),"[4]; Patient 4, baseline 0.550",0.800 L
same,VT/ti (inspiratory drive),"[4]; Patient 4, baseline 937",1590 mL/s
